Patent US20220167645A1, “METHODS OF IMPROVING FISH FEED CONVERSION RATE AND SURVIVAL” (AQUINOVO LTD., priority 2019, published 2022)
Several values for one entry are separate records, joined by “and”; a condition that tells them apart may be missing. Equal values may be shown once. Numbered stars: 1 amine (or outer) side, 2 acyl side, 3 side chain; on linkers, the order of the positions; unused ones are H or OH. Square brackets hold non-standard residues; d marks the D form. Suc = O=C(CCC(=O)[*:2])[*:1]; NMeV = CN[C@H](C(=O)O)C(C)C; βAla = NCCC(=O)O

Legend:
[1] = test system: Tilapia fish; assay: Experiment #1: tilapia fed AN6-coated feed in two phases (growth, biomass, mortality, FCR); format: in vivo
Method: (§1) MeM (powder, manufactured by Bern Aqua), Nanolis P1, P2 (pellet sizes of 0.8-1 mm, 1-1.5 mm, respectively, manufactured by Ocialis) and Tilaphi 1, 2 & 3 (pellet sizes of 1-1.5 mm, 2 mm, 3-5.5 mm, respectively, manufactured by Ocialis) were used as basic regular feed. The basic feed was coated according to the following general procedure: 9 ml or 3 ml of Tris-HCl solution (50 mM, pH=8.8) were diluted to 60 ml with distilled H2O. For AN6-containing feed preparation, desired amounts of AN6 peptide (a TK antagonist having the sequence Succ-Asp-Ser-D-Trp—N(Me)Val-βAla-Leu-Met-NH2, SEQ ID NO. 6) were dissolved in the Tris-HCl solution. Then, each of the various solutions was mixed with 3 Kg of basic feed pellets using an electric mixer. The peptide-feed mixtures where then dried either in oven at 40° C. for 24 hours or in drying drum for few hours to form coated pellets. The total amount of each feed was 3 Kg.
Tilapia fish (n=3600) have been raised from age 10 to 106 days post-hatch (dph) in indoor tanks kept under artificial lightening (12 h light; 12 h dark), and then transferred to cages in ponds for 160 days (total 8-9 months). The fish were fed to apparent satiation 2-4 times a day, for about 90 days (10-106 dph, Phase 1), either with regular feed (Feed A, Group A, n=600 in 3 repeats) or with feed coated with AN6 peptide solution in a ratio of 10 mg AN6/Kg feed (10 ppm, Feed C, Group B, n=600 in 3 repeats). In the second phase, fish in group B were fed for 50 days (207-257 dph, Phase 2) with feed coated with AN6 peptide solution, in a ratio of 30 mg AN6/Kg feed (30 ppm, Feed D, Group B). Between days 107 and 206 the fish received control feed (feed A).
During the experiment period, the average fish weight was measured, and the daily growth rate was calculated by dividing the average weight gained in each measuring period by the number of days since the last measurement. […] This effect was also evident in the daily growth rate (FIG. 1, experiment #1). The relatively low growth rate measured in the initial phase of this experiment probably stemmed from high stocking density in tanks system in the initial period (Phase 1, Table 2, until day 106 post-hatch). This growth restriction was fully compensated in the larger cages in ponds (178 dph) where stocking density was much lower (from 106 dph, <10 Kg fish/m3).
During the experiments described above, dead fish were removed from tanks before each feeding, and then counted and weighed. Dead fish were not replaced after the beginning of the experiment. In the cage systems, in which dead fish are undetectable, actual mortality was estimated by the difference between initial and final count.
During the experiment described in example 2 (experiment #1), the fish were exposed to high stocking densities in indoor tanks (13-130 kg/m^3, 83-106 dph, Table 2, FIG. 7). High stocking density is known as a major fish stressor resulting, inter alia, in chronic increase in Cortisol levels, reduced growth, changes in behavior and inhibition of immune performance. Although mortality in these tanks was not high, a significant increase in mortality was observed following fish transfer to the pond (FIG. 7, 17.5%±2.4 mortality, x±SE).
In order to determine the efficiency of feed conversion into fish substance in experiments (#1, #2, #3), FCR values which reflect the amount of feed needed to grow a kilogram fish, were calculated for each period and for the entire fish growth period. In order to determine the amount of consumed feed, the amount of feed provided was measured daily for each tank and the leftovers were collected, weighted and subtracted from the total amount of feed. Dead fish were removed every day before each feeding and then counted and weighed for accurate calculation of feed intake and FCR. […]

[2] = test system: Tilapia fish; assay: Experiment #2: tilapia fed AN6-coated feed 60-150 dph (growth, biomass, FCR, intestine weight); format: in vivo
Method: as §1
Tilapia fish (n=1440) have been raised from day 60 to day 119 post-hatch in indoor tanks and then transferred to outdoor tanks (120-150 dph) followed by cages in ponds (150-243 dph). The fish were fed to apparent satiation 2-4 times a day, for 90 days (60-150 dph) either with regular feed (Feed A, Group C, n=60 in 8 repeats); feed coated with AN6 peptide solution in ratio of 5 mg AN6/Kg feed (5 ppm, Feed B, Group D, n=60 in 8 repeats); or feed coated with AN6 peptide solution in ratio of 10 mg AN6/Kg feed (Feed C, Group E, n=60 in 8 repeats).
During the experimental period, the average fish weight was measured, and the daily growth rate was calculated by dividing the average weight gained in each measuring period by the number of days since the last measurement. […] However, from age 200 dph, a considerable jump in fish performance and FCR was observed, reaching a maximal level at the last measurement point (243 dph, +8.4% average weight, +18% weight gain, +10% total biomass; FIG. 1, experiment #2 and FIG. 3B). The effect on growth was evident even when considering differences in initial body weight (FIG. 2B).
In order to determine the efficiency of feed conversion into fish substance in experiments (#1, #2, #3), FCR values which reflect the amount of feed needed to grow a kilogram fish, were calculated for each period and for the entire fish growth period. In order to determine the amount of consumed feed, the amount of feed provided was measured daily for each tank and the leftovers were collected, weighted and subtracted from the total amount of feed. Dead fish were removed every day before each feeding and then counted and weighed for accurate calculation of feed intake and FCR. It is to be noted that high mortality can still influence FCR values since feed eaten by fish that have later died cannot be subtracted from the total feed consumed and on the other hand periodic total fish weight gained is underestimated (dead fish are not included). Three FCR values were calculated according to the following formulas:
At the end of the experiment described in example 3 (experiment #2), 6 fish from each cage/tank (3 females and 3 males, n=24 per treatment group) were sacrificed and whole intestine was removed and weighted.

[3] = AN6 half-life in blood and residual peptide in muscle and plasma; conditions: in vivo
[4] = test system: TK receptors (tac1, tac2, tac3); assay: TK receptor mRNA expression following AN6 treatment; format: in vivo; conditions: different parts of the gut and skin
[5] = test system: Tilapia fish; assay: Experiment #1: tilapia fed AN6-coated feed in two phases (growth, biomass, mortality, FCR); format: in vivo; conditions: second phase, adult fish 195-263 dph; 50 days of 30 mg AN6/Kg feed; compared to control
[6] = 10 mg AN6/Kg feed 10-106 dph, first 200 days of experiment, vs control
[7] = 10 mg/Kg feed, Group E, last measurement point 243 dph, vs control

Succ-Asp-Ser- D-Trp -N(Me)Val-βAla-Leu-Met-NH2 (Suc-DS[dW][NMeV][βAla]LM-NH2; SMILES CSCC[C@H](NC(=O)[C@H](CC(C)C)NC(=O)CCNC(=O)[C@H](C(C)C)N(C)C(=O)[C@@H](Cc1c[nH]c2ccccc12)NC(=O)[C@H](CO)NC(=O)[C@H](CC(=O)O)NC(=O)CCC(=O)O)C(N)=O) [AN6]
daily growth rate [1, 6]: no differences
fish average weight [1, 6]: no differences
FCR and growth performance ([1]; 10 and 30 mg AN6/Kg feed (experiment #1)): both improved FCR and growth performance
number of fish in the upper 6.5th decile ([1]; AN6 treatment group (control 6%)): 12%
number of fish in the lower 2th decile ([1]; AN6 treatment group (control 9%)): 7%
mortality following fish transfer to the pond (x±SE) ([1]; after high stocking density in tanks, control 17.5%±2.4, FIG. 7): 10.5%±1.8
increased total biomass ([1]; experiment #1, FIG. 3A, vs control): +18%
reduction of fish mortality as compared to the control groups ([1]; in the pond, FIG. 7): 8.5%
weight gained normalized according to the initial body weight, difference compared to the control group ([1]; second phase of the experiment (FIG. 2A)): 6% and 9%
increase in fish average weight and growth rate ([2]; 10 mg/Kg feed, Group E (fed 60-150 dph), age 95 to 165 dph, vs control): ~+3%
average weight [2, 7]: +8.4%
total biomass [2, 7]: +10%
weight gain [2, 7]: +18%
number of fish in the upper 6.5th decile ([2]; 10 mgAN6/Kg feed, Group E (control 2.8%)): 7.2%
number of fish in the lower 2th decile ([2]; 10 mgAN6/Kg feed, Group E (control 18.4%)): 13.2%
weight gain of male and female populations analysed separately ([2]; FIG. 4, 5 and 10 mg/Kg for 90 days (60-150 dph)): better performance than control
ratio between intestine weight and fish weight (ISI) ([2]; male fish treated with 10 mg AN6/Kg feed, end of experiment #2, vs control, FIG. 6): +21%
cleared from blood [3]: ~4.5 min
half-life time in blood [3]: very short
peptide residual in muscle and blood after treatment [3]: no peptide residual is detected
residual peptide in muscle and plasma following treatment [3]: non residual peptide was observed
expression of all TK receptors (tac1, tac2, tac3) [4]: altered
increase in average fish weight [5]: +6.84%
increase in average weight gained [5]: +13%
